Results from US9315490B2, “2,5-substituted pyrimidines” (Grünenthal GmbH, priority 2014, dated 2016).

These compounds were tested against T1, human PDE4B1 (Homo sapiens, UniProt Q07343) (assay: cAMP HTRF assay to determine the activity of hPDE4B1). Conditions: inhibition of PDE4B at a test concentration of 1 μM.
T1 construct: host or cells: Sf9 cells
Format: biochemical
Description: Biological Testing cAMP HTRF® Assay to Determine the Activity of hPDE4B1
The inhibiting effect of the compounds on the enzyme activity of human PDE4B1 was measured by the quantification of 5′-adenosine monophosphate (5′-AMP), which is formed from 3′,5′-cyclic adenosine monophosphate (cAMP). Human recombinant enzyme, expressed in Sf9 cells, and the HTRF (homogeneous time-resolved fluorescence) detection method were used in the assay.
The test compound or water (control) was mixed with the human recombinant PDE4B1 enzyme (4.8 U) in a buffer consisting of 44.4 mM tris-HCl, 5.28 mM MgCl2, 2.64 mM DTT and 0.044% Tween 20 (pH 7.8). After adding the cAMP enzyme substrate (final concentration 40 nM), the mixture was incubated for 30 minutes at room temperature. Then a fluorescence acceptor (Dye2 marked with cAMP), a fluorescence donor (anti-cAMP antibody marked with a europium cryptate) and the non-specific phosphodiesterase inhibitor IBMX (3-isobutyl-1-methylxanthine; final concentration 1 mM) were added. After 60 minutes the fluorescence transfer, which correlates with the amount of remaining cAMP, was measured with a microplate reader (Rubystar, BMG) at λex=337 nm, λem=620 nm and λem=665 nm. The enzyme activity was calculated from the quotient formed from the measured signal at 665 nm and that at 620 nm. The result was expressed as the percentage inhibition of enzyme activity of the control (without PDE4 inhibitor). The enzyme was omitted for measurement of the basal control. IC50 values (IC50=concentration causing a half-maximal inhibition of control specific activity) were derived from dose response measurements with eight different concentrations (n=2; N=1-3).
Literature: N. Saldou et al., Comparison of recombinant human PDE4 isoforms: interaction with substrate and inhibitors, Cell. Signal. Vol. 10, No. 6, 427-440, 1998

T1 sequence (Q07343 whole entry): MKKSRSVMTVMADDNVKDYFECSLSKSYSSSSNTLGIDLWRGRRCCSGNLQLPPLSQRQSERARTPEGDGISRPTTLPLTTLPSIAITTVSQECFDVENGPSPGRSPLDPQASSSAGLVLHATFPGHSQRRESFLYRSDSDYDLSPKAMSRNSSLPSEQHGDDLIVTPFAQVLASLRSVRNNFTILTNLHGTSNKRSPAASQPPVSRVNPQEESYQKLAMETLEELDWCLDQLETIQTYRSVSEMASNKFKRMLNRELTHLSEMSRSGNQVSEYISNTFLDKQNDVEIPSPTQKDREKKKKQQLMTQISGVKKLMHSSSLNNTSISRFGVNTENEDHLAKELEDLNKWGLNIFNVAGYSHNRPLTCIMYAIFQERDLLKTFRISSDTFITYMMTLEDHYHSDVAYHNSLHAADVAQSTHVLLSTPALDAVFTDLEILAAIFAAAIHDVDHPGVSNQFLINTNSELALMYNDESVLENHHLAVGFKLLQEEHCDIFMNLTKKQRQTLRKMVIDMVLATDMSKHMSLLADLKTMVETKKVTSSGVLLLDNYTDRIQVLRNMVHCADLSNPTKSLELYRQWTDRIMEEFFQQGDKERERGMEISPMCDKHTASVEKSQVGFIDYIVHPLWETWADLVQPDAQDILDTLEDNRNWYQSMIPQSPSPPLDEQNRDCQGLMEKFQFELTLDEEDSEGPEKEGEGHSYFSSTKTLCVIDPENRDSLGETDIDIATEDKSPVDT

Row | SMILES | inhibition at 1 µM [%]
1 | C[S+]([O-])c1cn(-c2ncc(-c3ccncc3)cn2)c2cc(C(=O)N3CCOCC3)ccc12 (stereo not shown) [Example 47, (3-(Methylsulfinyl)-1-(5-(pyridin-4-yl)pyrimidin-2-yl)-1H-indol-6-yl)(morpholino)methanone] | 61
2 | C[S+]([O-])c1cn(-c2ncc(-c3cccnc3F)cn2)c2cc(C(=O)N3CCOCC3)ccc12 (stereo not shown) [Example 48, (1-(5-(2-Fluoropyridin-3-yl)pyrimidin-2-yl)-3-(methylsulfinyl)-1H-indol-6-yl)(morpholino)methanone] | 63
3 | C[S+]([O-])c1cn(-c2ncc(-c3ccccc3F)cn2)c2cc(C(=O)N3CCCC3)ccc12 (stereo not shown) [Example 51, (1-(5-(2-Fluorophenyl)pyrimidin-2-yl)-3-(methylsulfinyl)-1H-indol-6-yl)(pyrrolidin-1-yl)methanone] | 86
4 | CN(C(=O)c1ccc2c([S+](C)[O-])cn(-c3ncc(-c4ccccc4F)cn3)c2c1)C1CCOC1 (stereo not shown) [Example 54, 1-(5-(2-Fluorophenyl)pyrimidin-2-yl)-N-methyl-3-(methylsulfinyl)-N-(tetrahydrofuran-3-yl)-1H-indole-6-carboxamide] | 46
5 | C[S+]([O-])c1cn(-c2ncc(-c3ccccc3F)cn2)c2cc(C(=O)N3CCNC(=O)C3)ccc12 (stereo not shown) [Example 56, 4-(1-(5-(2-Fluorophenyl)pyrimidin-2-yl)-3-(methylsulfinyl)-1H-indole-6-carbonyl)piperazin-2-one] | 86
6 | CNC(=O)c1ccc2c([S+](C)[O-])cn(-c3ncc(-c4ccccc4F)cn3)c2c1 (stereo not shown) [Example 61, 1-(5-(2-Fluorophenyl)pyrimidin-2-yl)-N-methyl-3-(methylsulfinyl)-1H-indole-6-carboxamide] | 77
7 | C[S+]([O-])c1cn(-c2ncc(-c3ccccc3F)cn2)c2cc(C(=O)N3CC[C@@H](O)C3)ccc12 (stereo partly drawn) [Example 66, (1-(5-(2-Fluorophenyl)pyrimidin-2-yl)-3-(methylsulfinyl)-1H-indol-6-yl)((R)-3-hydroxypyrrolidin-1-yl)methanone] | 97
8 | C[S+]([O-])c1cn(-c2ncc(-c3ccccc3F)cn2)c2cc(C(=O)N3CC[C@H](O)C3)ccc12 (stereo partly drawn) [Example 67, (1-(5-(2-Fluorophenyl)pyrimidin-2-yl)-3-(methylsulfinyl)-1H-indol-6-yl)((S)-3-hydroxypyrrolidin-1-yl)methanone] | 47
9 | CS(=O)(=O)c1cn(-c2ncc(-c3ccccc3F)cn2)c2cc(C(=O)N3CC[C@@H](N)C3)ccc12 [Example 69, (R)-(3-Aminopyrrolidin-1-yl)(1-(5-(2-fluorophenyl)pyrimidin-2-yl)-3-(methylsulfonyl)-1H-indol-6-yl)methanone] | 95
10 | C[S+]([O-])c1cn(-c2ncc(-c3ccccc3)cn2)c2cc(C(=O)N3CCNC(=O)C3)ccc12 (stereo not shown) [Example 70, 4-(3-(Methylsulfinyl)-1-(5-phenylpyrimidin-2-yl)-1H-indole-6-carbonyl)piperazin-2-one] | 84
11 | COC[C@@H]1CCCN1C(=O)c1ccc2c([S+](C)[O-])cn(-c3ncc(-c4ccccc4F)cn3)c2c1 (stereo partly shown) [Example 71] | 63
12 | C[S+]([O-])c1cn(-c2ncc(-c3ccccc3F)cn2)c2cc(C(=O)N3CCC(O)CC3)ccc12 (stereo not shown) [Example 73, (1-(5-(2-Fluorophenyl)pyrimidin-2-yl)-3-(methylsulfinyl)-1H-indol-6-yl)(4-hydroxypiperidin-1-yl)methanone] | 78
13 | C[S+]([O-])c1cn(-c2ncc(-c3ccccc3F)cn2)c2cc(C(=O)NC3COC3)ccc12 (stereo not shown) [Example 75, 1-(5-(2-Fluorophenyl)pyrimidin-2-yl)-3-(methylsulfinyl)-N-(oxetan-3-yl)-1H-indole-6-carboxamide] | 47

Next, values leading:

Row | inhibition at 1 µM [%] | SMILES
14 | 72 | C[S+]([O-])c1cn(-c2ncc(-c3cccnc3)cn2)c2cc(C(=O)N3CCOCC3)ccc12 (stereo not shown) [Example 49, (3-(Methylsulfinyl)-1-(5-(pyridin-3-yl)pyrimidin-2-yl)-1H-indol-6-yl)(morpholino)methanone]
15 | 91 | C[S+]([O-])c1cn(-c2ncc(-c3ccccn3)cn2)c2cc(C(=O)N3CCOCC3)ccc12 (stereo not shown) [Example 50, (3-(Methylsulfinyl)-1-(5-(pyridin-2-yl)pyrimidin-2-yl)-1H-indol-6-yl)(morpholino)methanone]
16 | 91 | CN(C)C(=O)c1ccc2c([S+](C)[O-])cn(-c3ncc(-c4ccccc4F)cn3)c2c1 (stereo not shown) [Example 52, 1-(5-(2-Fluorophenyl)pyrimidin-2-yl)-N,N-dimethyl-3-(methylsulfinyl)-1H-indole-6-carboxamide]
17 | 40 | C[S+]([O-])c1cn(-c2ncc(-c3ccccc3F)cn2)c2cc(C(=O)N3CCCNCC3)ccc12 (stereo not shown) [Example 55, (1,4-Diazepan-1-yl)(1-(5-(2-fluorophenyl)pyrimidin-2-yl)-3-(methylsulfinyl)-1H-indol-6-yl)methanone]
18 | 90 | CN(C(=O)c1ccc2c([S+](C)[O-])cn(-c3ncc(-c4ccccc4F)cn3)c2c1)C1CCNC1 (stereo not shown) [Example 58, 1-(5-(2-Fluorophenyl)pyrimidin-2-yl)-N-methyl-3-(methylsulfinyl)-N-(pyrrolidin-3-yl)-1H-indole-6-carboxamide]
19 | 79 | C[S+]([O-])c1cn(-c2ncc(-c3ccccc3F)cn2)c2cc(C(=O)N3CCCOCC3)ccc12 (stereo not shown) [Example 60, (1-(5-(2-Fluorophenyl)pyrimidin-2-yl)-3-(methylsulfinyl)-1H-indol-6-yl)(1,4-oxoazepan-4-yl)methanone]
20 | 37 | C[S+]([O-])c1cn(-c2ncc(-c3ccccc3F)cn2)c2cc(C(=O)NCCO)ccc12 (stereo not shown) [Example 63, 1-(5-(2-Fluorophenyl)pyrimidin-2-yl)-N-(2-hydroxyethyl)-3-(methylsulfinyl)-1H-indole-6-carboxamide]
21 | 67 | CN(CCO)C(=O)c1ccc2c([S+](C)[O-])cn(-c3ncc(-c4ccccc4F)cn3)c2c1 (stereo not shown) [Example 64, 1-(5-(2-Fluorophenyl)pyrimidin-2-yl)-N-(2-hydroxyethyl)-N-methyl-3-(methylsulfinyl)-1H-indole-6-carboxamide]
22 | 40 | COCCN(C)C(=O)c1ccc2c([S+](C)[O-])cn(-c3ncc(-c4ccccc4F)cn3)c2c1 (stereo not shown) [Example 65, 1-(5-(2-Fluorophenyl)pyrimidin-2-yl)-N-(2-methoxyethyl)-N-methyl-3-(methylsulfinyl)-1H-indole-6-carboxamide]
23 | 108 | C[S+]([O-])c1cn(-c2ncc(-c3ccccc3F)cn2)c2cc(C(=O)N3CC[C@@H](N)C3)ccc12 (stereo partly shown) [Example 68]

Same assay, conditions: inhibition of PDE4B at a test concentration of 1 μM, 1 µM

Row | SMILES | Inhibition in % [%]
24 | COC1CCN(C(=O)c2ccc3c([S+](C)[O-])cn(-c4ncc(-c5ccccc5F)cn4)c3c2)CC1 (stereo not shown) [Example 72, (1-(5-(2-Fluorophenyl)pyrimidin-2-yl)-3-(methylsulfinyl)-1H-indol-6-yl)(4-methoxypiperidin-1-yl)methanone] | 33
25 | C[S+]([O-])c1cn(-c2ncc(-c3ccccc3F)cn2)c2cc(C(=O)N3CCOC(C)(C)C3)ccc12 (stereo not shown) [Example 74, (2,2-Dimethylmorpholino)(1-(5-(2-fluorophenyl)pyrimidin-2-yl)-3-(methylsulfinyl)-1H-indol-6-yl)methanone] | 63
